Laboratory results as given in article PMC12378234, “Enzyme-mediated aminoglycoside resistance without target mimicry” (Communications Chemistry, 2025).
Values after ≈ are worked out from the molar mass of the structure shown. Values joined by “and” are separate entries in the source; they are usually repeats but may differ in a detail not shown here. Equal entries are not always repeated. Where two headings read alike, the source gives them in different places.

What was measured:
AAC(3)-Ia = AAC(3)-Ia (Acinetobacter baumannii, UniProt D7R512); assay: Isothermal titration calorimetry; type: binding
Method: (§1) To accurately measure protein ligand interactions, the concentration of our proteins of interest was measured spectrophotometrically using the NanoDrop OneC Spectrometer (Thermo Scientific). ITC experiments were performed on a MicroCal iTC 200 (General Electric) at 25 °C with stirring at 750 rpm. Unique buffer solutions were used for each enzyme. AAC(3)-Ia was prepared in 50 mM HEPES, pH 7, and 150 mM NaCl. AAC(3)-IIIa was prepared in 120 mM Tris, pH 7.5, and 150 mM NaCl. AAC(3)-XIa was prepared in 20 mM Tris, pH 7.5, and 150 mM NaCl. The cell contained 550 μM AAC(3)-Ia, 350 μM AAC(3)-IIIa, or 450 μM AAC(3)-XIa. All experiments also contained 5000 μM of coenzyme A trilithium salt in the cell. […] In all ITC experiments, aminoglycosides were prepared in the same buffering solution as the target protein. The ligands were injected 29 times ([…] per injection) with a 180 s interval between injections. Results were analyzed using ORIGIN software version 7E (MicroCal) using the molecular weight of a single protomer of each protein and fitted with a two-set of sites binding model (Supplementary Fig. 5). Data analysis was performed in Microsoft Excel and GraphPad5 software. One-way ANOVA and Tukey’s multiple comparison tests were used to determine the statistical significance of binding affinities.

AAC(3)-XIa = AAC(3)-XIa (Corynebacterium striatum, UniProt A0ABX7DED9); assay: Isothermal titration calorimetry; type: binding; conditions: 25 °C, with coenzyme A, n = 3
Method: as §1

AAC(3)-IIIa = biological target: T1, AAC(3)-IIIa (Pseudomonas aeruginosa, UniProt P29808); assay: Isothermal titration calorimetry; type: binding, P. aeruginosa
T1 construct: 6xHis-tag (thrombin-cleavable, pET15b) (N); made in house; host or cells: LOBSTR E. coli
Method: as §1

[1] = system: BL21(DE3) E. coli transformed with pUCP18 vector expressing AAC(3)-IIIa; assay: Antibiotic susceptibility testing, endpoint MIC assay; type: cell-based; conditions: Escherichia coli, 20 h, read-out: Endpoint minimum inhibitory concentration (MIC)
Method: (§2) Ten milliliters of cultures of LB containing […] ampicillin were inoculated from glycerol stocks of transformed BL21(DE3) E. coli containing genes expressing the proteins of interest in pUCP18 vectors. Experiments were performed using 6xHis-tagged fusion-proteins, as well as untagged wild-type proteins. These cultures were incubated at 37 °C with 200 rpm agitation for 16 h. Turbidity was measured through OD600 with a NanoDrop OneC Spectrometer (Thermo Scientific). From the initial cultures, secondary 10 mL cultures were prepared with OD600 values of 0.1. These cultures were grown until OD600 values of 0.4–0.6 were reached and diluted to bring all cultures to the same OD600. Cultures were induced with 1 mM Isopropyl β-D-1-thiogalactopyranoside and incubated for 4 h. Cultures were diluted to 1 × 10^6 cells mL^−1. Two microliters of culture was added to 198 μL of LB with an appropriate aminoglycoside titration concentration. The formulated 96-well culture plate (Sarstedt) was incubated at 37 °C with 120 rpm orbital agitation. The remainder of the bacterial culture was immediately lysed and processed for Western blotting. OD600 was measured after 20 h using the Molecular Devices Spectra MAX 190 plate reader.

[2] = system: BL21(DE3) E. coli transformed with pUCP18 vector expressing AAC(3)-Ia; assay: as above; type: cell-based; conditions: Escherichia coli, 20 h, read-out: Endpoint minimum inhibitory concentration (MIC)
Method: as §2

[3] = system: BL21(DE3) E. coli transformed with pUCP18 vector expressing AAC(3)-XIa; assay: as above; type: cell-based; conditions: Escherichia coli, 20 h, read-out: Endpoint minimum inhibitory concentration (MIC)
Method: as §2

[4] = system: empty pUCP18 vector transformed E. coli; assay: as above; type: cell-based; conditions: Escherichia coli; empty pUCP18 vector control E. coli; after 20 h of growth; read-out: Endpoint minimum inhibitory concentration (MIC)
Method: as §2

[5] = system: BL21(DE3) E. coli transformed with pUCP18 vector expressing untagged AAC(3)-IIIa; type: cell-based; conditions: E. coli expressing AAC(3)-IIIa; 12 μg mL^−1 antibiotic; 17 h
Method: (§3) Ten milliliters of LB containing […] ampicillin were inoculated from glycerol stocks of transformed BL21(DE3) E. coli containing genes expressing the proteins of interest in pUCP18 vectors. These cultures were incubated at 37 °C with 200 rpm agitation for 16 h. Turbidity was measured through OD600 with a NanoDrop OneC Spectrometer (Thermo Scientific). From the initial cultures, secondary 10 mL cultures were prepared with OD600 values of 0.1. These cultures were grown until OD600 values of 0.4–0.6 were reached and diluted to bring all cultures to the same OD600. Cultures were induced with 1 mM Isopropyl β-D-1-thiogalactopyranoside and incubated for 4 h. Two microliters of culture was added to 198 μL of LB with an appropriate aminoglycoside titration concentration. Each titration point was repeated n = 4 times. The formulated 96-well culture plate (Sarstedt) had OD600 measured on a 20-min interval over 17 h using a BioTek Cytation 5 Cell Imaging Multimode Reader, incubating at 37 °C with 282 cpm orbital agitation. Experiments were repeated with fresh cultures on separate days to ensure consistent trends. Data was analyzed in Microsoft Excel and GraphPad5. The remainder of the culture immediately had its RNA isolated for qPCR experiments.

[6] = system: BL21(DE3) E. coli transformed with pUCP18 vector expressing untagged AAC(3)-Ia; type: cell-based; conditions: E. coli expressing AAC(3)-Ia; 12 μg mL^−1 antibiotic; 17 h
Method: as §3

[7] = AAC(3)-Ia, first set of sites, 25 °C, with coenzyme A, n = 3
[8] = AAC(3)-Ia, second set of sites, 25 °C, with coenzyme A, n = 3
[9] = AAC(3)-XIa, second set of sites
[10] = first set of sites, 25 °C, with coenzyme A, n = 3
[11] = second set of sites, 25 °C, with coenzyme A, n = 3

T1 sequence (P29808 whole entry): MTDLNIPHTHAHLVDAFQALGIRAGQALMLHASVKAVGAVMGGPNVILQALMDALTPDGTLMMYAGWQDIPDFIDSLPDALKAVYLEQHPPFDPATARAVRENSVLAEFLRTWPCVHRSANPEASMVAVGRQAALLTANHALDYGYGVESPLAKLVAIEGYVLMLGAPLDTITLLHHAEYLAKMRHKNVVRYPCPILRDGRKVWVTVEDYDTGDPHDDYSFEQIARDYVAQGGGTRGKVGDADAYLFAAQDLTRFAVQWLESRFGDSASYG

CN[C@@H]1[C@@H](O)[C@@H](O[C@@H]2[C@@H](O)[C@H](O[C@H]3OC(CN)=CC[C@H]3N)[C@@H](N)C[C@H]2N)OC[C@]1(C)O [Sisomicin, sisomicin]
TΔS (AAC(3)-Ia; [7]): 3.3 ± 0.427 kcal/mol | ΔG (AAC(3)-Ia; [7]): -6.25 ± 0.596 kcal/mol | ΔH (AAC(3)-Ia; [7]): -2.95 ± 0.416 kcal/mol | N (sites) (AAC(3)-Ia; AAC(3)-Ia, first set of sites, two-set of sites model, 25 °C, with coenzyme A, n = 3): 0.50 ± 0.06 sites | N2 (sites) (AAC(3)-Ia; [8]): 0.54 ± 0.01 sites | TΔS 2 (AAC(3)-Ia; [8]): 3.45 ± 0.795 kcal/mol | ΔG 2 (AAC(3)-Ia; [8]): -5.66 ± 1.1 kcal/mol | ΔH 2 (AAC(3)-Ia; [8]): -2.21 ± 0.763 kcal/mol | Kd (AAC(3)-Ia; Kd2, AAC(3)-Ia, second set of sites, 25 °C, with coenzyme A, n = 3): 71.8 ± 7.5 µM | Kd (AAC(3)-Ia; Kd, AAC(3)-Ia, first set of sites, two-set of sites model, 25 °C, with coenzyme A, n = 3): 26 ± 0.6 µM | Kd (AAC(3)-Ia; Kd, AAC(3)-Ia, individual replicates, raw data behind Fig. 6): 26.2 µM and 24.9 µM and 27 µM | TΔS (AAC(3)-XIa; AAC(3)-XIa, first set of sites): -4.51 ± 0.378 kcal/mol | ΔG (AAC(3)-XIa; AAC(3)-XIa, first set of sites): -8.12 ± 0.53 kcal/mol | ΔH (AAC(3)-XIa; AAC(3)-XIa, first set of sites): −12,600 ± 372 cal/mol | N (sites) (AAC(3)-XIa; AAC(3)-XIa, first set of sites, two-set of sites model): 0.51 ± 0.01 sites | N2 (sites) (AAC(3)-XIa; [9]): 0.36 ± 0.04 sites | TΔS 2 (AAC(3)-XIa; [9]): 7.295 ± 1.615 kcal/mol | ΔG 2 (AAC(3)-XIa; [9]): -6.237 ± 2.237 kcal/mol | ΔH 2 (AAC(3)-XIa; [9]): 1.058 ± 1.548 kcal/mol | Kd (AAC(3)-XIa; Kd2, AAC(3)-XIa, second set of sites): 27.1 ± 4.2 µM | Kd (AAC(3)-XIa; Kd, AAC(3)-XIa, first set of sites, two-set of sites model): 1.1 ± 0.02 µM | TΔS (AAC(3)-IIIa; [10]): -0.411 ± 0.318 kcal/mol | ΔG (AAC(3)-IIIa; [10]): -8.05 ± 0.474 kcal/mol | ΔH (AAC(3)-IIIa; [10]): -8.46 ± 0.351 kcal/mol | N (sites) (AAC(3)-IIIa; first set of sites, two-set of sites model, 25 °C, with coenzyme A, n = 3): 0.35 ± 0.03 sites | Kd (AAC(3)-IIIa; first set of sites, two-set of sites model, 25 °C, with coenzyme A, n = 3, read-out: Kd): 1.3 ± 0.1 µM | Kd (AAC(3)-IIIa; individual replicates, raw data behind Fig. 6, read-out: Kd): 1.42 µM and 1.17 µM and 1.23 µM | N2 (sites) (AAC(3)-IIIa; [11]): 0.56 ± 0.04 sites | TΔS 2 (AAC(3)-IIIa; [11]): 2 ± 0.146 kcal/mol | ΔG 2 (AAC(3)-IIIa; [11]): -7.74 ± 0.204 kcal/mol | ΔH 2 (AAC(3)-IIIa; [11]): -5.74 ± 0.143 kcal/mol | Kd (AAC(3)-IIIa; second set of sites, 25 °C, with coenzyme A, n = 3, read-out: Kd2): 2.1 ± 0.2 µM | MIC [1]: 12 µg/mL (≈ 26.8 µM) | MIC [2]: 6 µg/mL (≈ 13.4 µM) | MIC [3]: 12 µg/mL (≈ 26.8 µM) | MIC [4]: 6 µg/mL (≈ 13.4 µM) | Growth (OD600 growth curve) [5]: none of the strains of transformed E. coli were able to grow at all | Growth (OD600 growth curve) [6]: none of the strains of transformed E. coli were able to grow at all
